In US6979471B1, “Composition comprising pharmaceutical/nutraceutical agent and a bio-enhancer obtained from Glycyrrhiza glabra” (Council of Scientific and Industrial Research, priority 2000, dated 2005):

Columns and labels:
Format in all cases: cell-based
[1] = system: Escherichia coli (ATCC 10536); assay: Broth assay for bio-enhancement of antibiotics: viable cell count, Escherichia coli; details: Table 1; for *Folds enhancement in antibiotic activity (a/b): glycyrrhizin 1 μg/ml
[2] = system: Candida albicans (ATCC 10231); assay: Disc diffusion assay, antifungal agent against Candida albicans
Description: (§1) • a) The minimum inhibitory concentration (MIC) of any antibiotic or drug molecule is determined against Escherichia coli (ATCC 10536), Bacillus subtilis (ATCC 6015) and Mycobacterium smegmatis (ATCC 14468) and Candida albicans (ATCC 10231) in broth and disc diffusion assays. • b) The antibiotics or antifungal agents at concentrations 1/10, ⅛, ⅙, ¼, ⅓, ½ and equal to MIC are added alone and in combination with the test compound at varying concentrations in broth assays to evaluate the comparative level of inhibition and similarly at varying concentrations in disc diffusion assay. • c) The combinations showing enhancement in terms of higher activity than antibiotic alone for the inhibition of bacterial growth (large inhibition zone in disc diffusion and higher killing at lower concentration in broth assay) are picked up for future testing. • d) In broth assays the activity is quantified by counting number of viable cells in a given treatment and converted in fold enhancement by the combination treatment compared to antibiotic/drug alone in the killing percentage of cells. • e) The pretreatment assay is followed to determine whether the bioenhancer which may be either an extract obtained from the plant Glycyrrhiza glabra, glycyrrhizin or glycyrrhizic acid, is required along with antibiotic to enhance its activity or even its withdrawal after treatment or prior to antibiotic treatment would benefit. […] Assay for Bio-Enhancement of Anti-Cancer Agents • a) MCF-7 (Breast cancer cell line is inoculated at a density of about 0.1×10^6 cells in MEM medium in the wells of 24 well plate. • b) The used up medium in these cultures is replaced with fresh medium after 18 hours in each well. • c) The test compound (s) is added at desired concentrations in different wells just after the medium replacement. • d) Observations are recorded on the cell count after 36 hours for which the following steps are required. • i. […] The number of viable cells is counted in 5 big squares and the reading is taken from 5 microscopic fields to determine the average. • viii. […]

Escherichia coli = assay: Disc diffusion assay against Escherichia coli; details: Escherichia coli; read-out: Net zone of inhibition
Description: as §1

Mycobacterium smegmatis = assay: Disc diffusion assay against Mycobacterium smegmatis; details: Mycolicibacterium smegmatis; read-out: Net zone of inhibition
Description: as §1

[3] = system: Bacillus subtilis (ATCC 6015); assay: Broth assay for bio-enhancement of antibiotics: viable cell count, Bacillus subtilis
Description: (§2) In the next step of elucidation of the enhancer action the applicants experimented with the killing activities of different antibiotics against the bacteria singly and in combination with the test compound glycyrrhizin following the method described above. These experiments are to be considered with assay for bioenhancement of the compounds glycyrrhizin/glycyrrhizic acid and licorice, as described earlier. […] In all the experiments the glycyrrhizin concentration was kept at 1 μg/ml, unless it is specifically mentioned.

[4] = system: Mycobacterium smegmatis (ATCC 14468); assay: Broth assay for bio-enhancement of antibiotics: viable cell count, Mycobacterium smegmatis; details: Table 3; for *Folds enhancement in antibiotic activity (a/b): glycyrrhizin 1 μg/ml
Description: (§3) For this, the cells are treated with the bioenhancer/compound for 4 to 8 hours and then washed free of it by centrifugation and washing in sterile water. […] 2. Assay for Bio-Enhancement of Anti-Cancer Agents • a) MCF-7 (Breast cancer cell line is inoculated at a density of about 0.1×10^6 cells in MEM medium in the wells of 24 well plate. • b) The used up medium in these cultures is replaced with fresh medium after 18 hours in each well. • c) The test compound (s) is added at desired concentrations in different wells just after the medium replacement. • d) Observations are recorded on the cell count after 36 hours for which the following steps are required. • i. The medium is removed from the wells. • ii. The wells are rinsed with 1 ml PBS (Phosphate buffer saline). • iii. To each well 500 μl of freshly prepared trypsin solution (0.1% in PBS) is added. • iv. Trypsin solution is removed after 30 seconds and the plate is gently tapped till the cells are released from the plate surface. • v. Fresh 1 ml of MEM growth medium is added and agitated with a pipette to obtain a cell suspension. • vi. 10 μl of cell suspension is taken on the haemocytometer and a cover glass is placed over the counting chamber. • vii. The number of viable cells is counted in 5 big squares and the reading is taken from 5 microscopic fields to determine the average. • viii. The cell count (titre per ml) in the original sample is then calculated as average count×10^3. Composition of Minimum Essential Medium (MEM): 100 ml
as §2

[5] = system: MCF-7 (Breast cancer cell line); assay: Assay for bio-enhancement of anti-cancer agents: viable cell count after 36 hours; details: for Final titre of viable cells upon treatment with taxol-glycyrrhizin combination / Final titre of viable cells upon treatment with taxol alone: initial titre 0.1 × 10^6, 36 hours
Description: as §3

[6] = antibiotic 8 μg/ml + glycyrrhizin 1 μg/ml
[7] = antibiotic 4 μg/ml + glycyrrhizin 1 μg/ml

CC1(C)S[C@@H]2[C@H](NC(=O)[C@H](N)c3ccccc3)C(=O)N2[C@H]1C(=O)O [Ampicillin]
Survival fraction of viable cells upon treatment with antibiotic alone (a) ([1]; antibiotic 6 μg/ml): 0.38
Survival fraction of viable cells upon treatment with antibiotic- glycyrrhizin combination (b) ([1]; antibiotic 6 μg/ml + glycyrrhizin 1 μg/ml): 0.03
*Folds enhancement in antibiotic activity (a/b) ([1]; antibiotic 6 μg/ml): 12.6 folds
Survival fraction of viable cells upon treatment with antibiotic alone (a) ([1]; antibiotic 8 μg/ml): 0.013
Survival fraction of viable cells upon treatment with antibiotic- glycyrrhizin combination (b) [1, 6]: 0.006
*Folds enhancement in antibiotic activity (a/b) ([1]; antibiotic 8 μg/ml): 2.1 folds

Clc1ccccc1C(c1ccccc1)(c1ccccc1)n1ccnc1 [Clotrimazole]
zone of inhibition at 4 µg/disc ([2]; Candida albicans, ATCC10231, clotrimazole 4 μg/disc alone, glycyrrhizin 0): 7 mm
Zone of inhibition ([2]; clotrimazole 4 μg/disc + glycyrrhizin 1 μg/disc): 11 mm

CC1(C)[C@@H](O[C@H]2O[C@H](C(=O)O)[C@@H](O)[C@H](O)[C@H]2O[C@@H]2O[C@H](C(=O)O)[C@@H](O)[C@H](O)[C@H]2O)CC[C@]2(C)[C@H]3C(=O)C=C4[C@@H]5C[C@@](C)(C(=O)O)CC[C@]5(C)CC[C@@]4(C)[C@]3(C)CC[C@@H]12 [Glycyrrhizic acid]
zone of inhibition at 4 µg/disc (Escherichia coli): 0 mm
zone of inhibition at 4 µg/disc (Mycobacterium smegmatis): 0 mm

CCn1cc(C(=O)O)c(=O)c2ccc(C)nc21 [Nalidixic acid]
Survival fraction of viable cells upon treatment with antibiotic alone (a) ([3]; Table 2, antibiotic 6 μg/ml): 0.50
Survival fraction of viable cells upon treatment with antibiotic- glycyrrhizin combination (b) ([3]; Table 2, antibiotic 6 μg/ml + glycyrrhizin 1 μg/ml): 0.11
*Folds enhancement in antibiotic activity (a/b) ([3]; Table 2, antibiotic 6 μg/ml, glycyrrhizin 1 μg/ml): 4.50 folds
Survival fraction of viable cells upon treatment with antibiotic alone (a) ([3]; Table 2, antibiotic 8 μg/ml): 0.27
Survival fraction of viable cells upon treatment with antibiotic- glycyrrhizin combination (b) ([3]; Table 2, antibiotic 8 μg/ml + glycyrrhizin 1 μg/ml): 0.04
*Folds enhancement in antibiotic activity (a/b) ([3]; Table 2, antibiotic 8 μg/ml, glycyrrhizin 1 μg/ml): 6.75 folds
Survival fraction of viable cells upon treatment with antibiotic alone (a) ([3]; Table 11, antibiotic 6 μg/ml): 0.500
Survival fraction of viable cells upon treatment with antibiotic glycyrrhizic acid combination (b) ([3]; Table 11, antibiotic 6 μg/ml + licorice 25 μg/ml): 0.121
*Folds enhancement in antibiotic activity (a/b) ([3]; Table 11, antibiotic 6 μg/ml, licorice 25 μg/ml): 4.10 folds
Survival fraction of viable cells upon treatment with antibiotic alone (a) ([1]; antibiotic 8 μg/ml): 0.19
Survival fraction of viable cells upon treatment with antibiotic- glycyrrhizin combination (b) [1, 6]: 0.02
*Folds enhancement in antibiotic activity (a/b) ([1]; antibiotic 8 μg/ml): 9.5 folds
Survival fraction of viable cells upon treatment with antibiotic alone (a) ([4]; antibiotic 4 μg/ml): 0.70
Survival fraction of viable cells upon treatment with antibiotic- glycyrrhizin combination (b) [4, 7]: 0.12
*Folds enhancement in antibiotic activity (a/b) ([4]; antibiotic 4 μg/ml): 7.7 folds

CC(=O)O[C@H]1C(=O)[C@@]2(C)[C@H]([C@H](OC(=O)c3ccccc3)[C@]3(O)C[C@H](OC(=O)[C@H](O)[C@@H](NC(=O)c4ccccc4)c4ccccc4)C(C)=C1C3(C)C)[C@]1(OC(C)=O)CO[C@@H]1C[C@@H]2O [Taxol, Paclitaxel (Taxol)]
Cancerous cells growth inhibition by Taxol in presence of glycyrrhizin, compared with taxol alone ([5]; Taxol 0.01 μg/ml + glycyrrhizin 1 μg/ml versus taxol 0.05 μg/ml alone): higher than even the treatment with taxol (@ 0.05 μg/ml) alone
Final titre of viable cells upon treatment with taxol-glycyrrhizin combination ([5]; taxol 0.01 μg/ml + glycyrrhizin 1 μg/ml): 0.025 × 10^6 per ml
Final titre of viable cells upon treatment with taxol alone ([5]; taxol 0.01 μg/ml): 0.05 × 10^−6 per ml
Final titre of viable cells upon treatment with taxol-glycyrrhizin combination ([5]; taxol 0.02 μg/ml + glycyrrhizin 1 μg/ml): 0.024 × 10^6 per ml
Final titre of viable cells upon treatment with taxol alone ([5]; taxol 0.02 μg/ml): 0.04 × 10^−6 per ml
Final titre of viable cells upon treatment with taxol-glycyrrhizin combination ([5]; taxol 0.05 μg/ml + glycyrrhizin 1 μg/ml): 0.021 × 10^6 per ml
Final titre of viable cells upon treatment with taxol alone ([5]; taxol 0.05 μg/ml): 0.03 × 10^−6 per ml
Enhancement of anticancerous activity (inhibiting growth and multiplication of MCF-7 cells) by glycyrrhizin ([5]; taxol with glycyrrhizin 1 μg/ml): at least 5 folds

CN(C)[C@@H]1C(O)=C(C(N)=O)C(=O)[C@@]2(O)C(O)=C3C(=O)c4c(O)cccc4[C@@](C)(O)[C@H]3C[C@@H]12 [Tetracycline]
Survival fraction of viable cells upon treatment with antibiotic alone (a) ([3]; Table 2, antibiotic 1 μg/ml): 0.10
Survival fraction of viable cells upon treatment with antibiotic- glycyrrhizin combination (b) ([3]; Table 2, antibiotic 1 μg/ml + glycyrrhizin 1 μg/ml): 0.02
*Folds enhancement in antibiotic activity (a/b) ([3]; Table 2, antibiotic 1 μg/ml, glycyrrhizin 1 μg/ml): 5.00 folds
Survival fraction of viable cells upon treatment with antibiotic alone (a) ([1]; antibiotic 2 μg/ml): 0.42
Survival fraction of viable cells upon treatment with antibiotic- glycyrrhizin combination (b) ([1]; antibiotic 2 μg/ml + glycyrrhizin 1 μg/ml): 0.22
*Folds enhancement in antibiotic activity (a/b) ([1]; antibiotic 2 μg/ml): 1.9 folds
Survival fraction of viable cells upon treatment with antibiotic alone (a) ([1]; antibiotic 4 μg/ml): 0.27
Survival fraction of viable cells upon treatment with antibiotic- glycyrrhizin combination (b) [1, 7]: 0.03
*Folds enhancement in antibiotic activity (a/b) ([1]; antibiotic 4 μg/ml): 9.0 folds
Survival fraction of viable cells upon treatment with antibiotic alone (a) ([4]; antibiotic 0.5 μg/ml): 0.3
Survival fraction of viable cells upon treatment with antibiotic- glycyrrhizin combination (b) ([4]; antibiotic 0.5 μg/ml + glycyrrhizin 1 μg/ml): 0.2
*Folds enhancement in antibiotic activity (a/b) ([4]; antibiotic 0.5 μg/ml): 1.5 folds
